The values that follow come from patent publication US8003796B2, “Pyridone GPR119 G protein-coupled receptor agonists” (Bristol-Myers Squibb Company, priority 2007, dated 2011).

Counter-ions that a name gives are not always drawn.

One test deals with T1, human GPR119 (Homo sapiens, UniProt Q8TDV5).
T1 construct: expressed in transfected cells; host or cells: Flp-In-T-REx 293 (tetracycline-inducible)
T1 sequence (Q8TDV5 1-335): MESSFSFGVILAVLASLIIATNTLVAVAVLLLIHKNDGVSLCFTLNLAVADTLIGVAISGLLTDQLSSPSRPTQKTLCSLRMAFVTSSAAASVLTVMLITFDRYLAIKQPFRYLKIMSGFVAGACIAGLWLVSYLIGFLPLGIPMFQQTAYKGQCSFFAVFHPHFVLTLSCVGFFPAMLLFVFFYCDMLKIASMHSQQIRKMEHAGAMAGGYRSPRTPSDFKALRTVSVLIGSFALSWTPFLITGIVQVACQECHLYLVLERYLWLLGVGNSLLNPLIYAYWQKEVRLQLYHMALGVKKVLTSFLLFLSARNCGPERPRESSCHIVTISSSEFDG
Description: Human Tet-inducible cAMP assay. The test is classed as cell-based. Conditions: Flp-In-T-REx 293 tetracycline inducible cells expressing GPR119; cAMP by Hit Hunter cAMP kit; 1 hour at 37° C.; read-out: hGPR119 EC50. On the procedure: The in vitro modulation of recombinant human GPR119 was determined as follows.
Human Tet-Inducible cAMP Assay
Cell lines expressing GPR119 are generated using the Flp-In-T-REx 293 tetracycline inducible gene expression system are cultured in culture medium comprising the following components: DMEM#11965, 10% FBS, 2 mM L-glutamine, 200 ug/ml Hygromycin B, and 15 ug/ml blasticidin.
For cAMP assays, cells are plated on 96 well plates (e.g., BD Falcon: REF 353948, black side, clear bottom, TC surface) at a density of about 4.5×10^4 cells per well in growth medium containing 1.0 ug/ml tetracycline (1.0 mg/ml stock). The cells are then incubated for 48 hours at 37° C.
Following the incubation, the growth medium is removed from the wells and the wells rinsed (once) with the assay buffer included in the Hit Hunter cAMP kit (100 μl/well). Following the wash, 20 μl of assay buffer is added to each well, followed by addition of 10 μl of a 3× concentration compound working solution. The solution is then mixed. The final concentration range of compound is from about 10^−5M to about 10^−11M. The reagents are then incubated at 37° C. at 5% CO2 for 1 hour.
The manufacturer's protocol may be followed for cAMP determination. The Hit Hunter cAMP kit protocol is outlined for the HIT-T15 cAMP assays described above.
Compounds of the present invention were tested in the Human Tet-inducible cAMP assay described immediately above and the results shown in Table 1 below were obtained.
On to `CC(C)OC(=O)N1CCC(Oc2ccn(-c3ccc(NC(=O)C(C)C)cc3)c(=O)c2)CC1` [Example 209, isopropyl 4-(1-(4-isobutyramidophenyl)-2-oxo-1,2-dihydropyridin-4-yloxy)piperidine-1-carboxylate], for which the concentration for a half-maximal effect (EC50) came to 3390 nM. On the same count and under the same terms, for `CCCc1cnc(N2CCC(Oc3cc(=O)n(-c4ccc(S(C)(=O)=O)c(F)c4)cc3Cl)CC2)nc1` [Example 224, 5-chloro-1-(3-fluoro-4-(methylsulfonyl)phenyl)-4-(1-(5-propylpyrimidin-2-yl)piperidin-4-yloxy)pyridin-2(1H)-one, TFA salt] the value was 6 nM; for `CCCc1cnc(N2CCC(Oc3cc(=O)n(-c4ccc(C#N)c(F)c4)cc3Cl)CC2)nc1` [Example 227, 4-(5-chloro-2-oxo-4-(1-(5-propylpyrimidin-2-yl)piperidin-4-yloxy)pyridin-1(2H)-yl)-2-fluorobenzonitrile], 1 nM; for `N#Cc1ccc(-n2cc(Cl)c(OC3CCN(c4ncc(C5CC5)cn4)CC3)cc2=O)cc1F` [Example 229, 4-(5-chloro-4-(1-(5-cyclopropylpyrimidin-2-yl)piperidin-4-yloxy)-2-oxopyridin-1(2H)-yl)-2-fluorobenzonitrile], 4 nM. On the same count and under the same terms, then `CCCc1cnc(N2CCC(Oc3ccn(-c4ccc(NC(=O)C(C)(C)C)c(F)c4)c(=O)c3)CC2)nc1` [Example 239, N-(2-fluoro-4-(2-oxo-4-(1-(5-propylpyrimidin-2-yl)piperidin-4-yloxy)pyridin-1(2H)-yl)phenyl)pivalamide], with 9 nM; and `CS(=O)(=O)c1ccc(-n2ccc(OC3CCN(c4ncc(C5CCC5)cn4)CC3)cc2=O)c(F)c1` [Example 243, 4-(1-(5-cyclobutylpyrimidin-2-yl)piperidin-4-yloxy)-1-(2-fluoro-4-(methylsulfonyl)phenyl)pyridin-2(1H)-one], with 9 nM; and `CCCc1cnc(N2CCCC(Oc3ccn(-c4ccc(S(C)(=O)=O)cc4)c(=O)c3)CC2)nc1` (centres unmarked) [Example 261, 1-(4-(methylsulfonyl)phenyl)-4-(1-(5-propylpyrimidin-2-yl)azepan-4-yloxy)pyridin-2(1H)-one], with 257 nM. The same measure, in the same setting: then `N#Cc1ccc(-n2cc(Cl)c(OC3CCN(c4ncc(CCC(F)(F)F)cn4)CC3)cc2=O)cc1F` [Example 263, 4-(5-chloro-2-oxo-4-(1-(5-(3,3,3-trifluoropropyl)pyrimidin-2-yl)piperidin-4-yloxy)pyridin-1(2H)-yl)-2-fluorobenzonitrile], with 4 nM; and `N#Cc1ccc(-n2cc(Cl)c(OC3CCN(c4ncc(C5CC5)cn4)CC3)cc2=O)c(F)c1` [Example 265, 4-(5-chloro-4-(1-(5-cyclopropylpyrimidin-2-yl)piperidin-4-yloxy)-2-oxopyridin-1(2H)-yl)-3-fluorobenzonitrile], with 4 nM. With `CC(C)(C)OC(=O)N1CCC(Oc2cc(=O)n(-c3ccc(C#N)c(F)c3)cc2Cl)CC1` [Example 267, tert-butyl 4-(5-chloro-1-(4-cyano-3-fluorophenyl)-2-oxo-1,2-dihydropyridin-4-yloxy)piperidine-1-carboxylate], the EC50 was found to be 4 nM.

The subject of a further test is male C57BL/6J mice. Kind of test: Mouse oral glucose tolerance test. In kind it is in vivo. Conditions: oGTT in fasted mice; oral administration at -30 min, glucose 2 g/kg at time 0; plasma glucose AUC vs vehicle; dose not given. On the procedure: Mouse Oral Glucose Tolerance Test
24 male C57BL/6J mice (8-10 weeks old, average weight 28 g) were randomized into 4 groups (1 mouse/cage) of 6 mice per group based on fed plasma glucose and body weight. Prior to initiating the study, mice were fasted overnight and the next morning they were weighed and placed in the experimental lab. After 30 min in the environment, the mice were bled via tail tip at −30 min and immediately given their first oral administration of vehicle (0.5% Methocel, 0.1% Tween 80 in water) or compound solutions (5 ml/kg). At time 0 the mice were bled and given 50% glucose (2 g/kg) to initiate the oral glucose tolerance test (oGTT). The mice were bled 30, 60 and 120 min after the glucose load. Blood samples were drawn into potassium EDTA, placed on ice during the study and subsequently centrifuged for 10 min at 3000 rpm at 4° C. Plasma samples were diluted 11-fold for glucose analysis in the Cobas Mira System (Roche Diagnostics). Area under the curve was calculated from the plasma glucose time course data using the trapezoid rule with fasting plasma glucose as the baseline (GraphPad Prism Software). The statistical significance of the changes in the glucose AUCs resulting from the different treatments was determined by one-way ANOVA followed by Dunnett's test using the vehicle group as the control (JMP software, release 5.1.2).
Take `CC(C)OC(=O)N1CCC(Oc2ccn(-c3ccc(S(C)(=O)=O)cc3)c(=O)c2)CC1` [Example 3, isopropyl 4-(1-(4-(methylsulfonyl)phenyl)-2-oxo-1,2-dihydropyridin-4-yloxy)piperidine-1-carboxylate]: the “Glucose Lowering (%)” value is −29%.
